Reference: patent publication US10030026B2, “Difluoroethylpyridine derivatives as NR2B NMDA receptor antagonists” (Rugen Holdings (Cayman) Limited, priority 2014, dated 2018)
Values joined by “and” are separate entries in the source; they are usually repeats but may differ in a detail not shown here. Equal values may be shown once.

Key:
hERG channel = hERG channel (Homo sapiens (Human), UniProt Q12809); assay: hERG channel inhibition, whole cell patch clamp in HEK293 cells; assay type: cell-based; settings: hERG stably expressed in HEK293 cells
Method: The assay was performed on hERG channel stably expressed in HEK293 cells. The cells were cultured at 37° C. in a humidified CO2 incubator in the growth medium consisting of DMEM, 10% fetal bovine serum and antibiotics. Prior to the assay, the cells were seeded onto a 12 mm PDL-coated glass coverslip and cultured in a 35 mm Petri dish. After 16 to 40 hr culture, the cover slip was transferred into the chamber of OctaFlow perfusion system (ALA Instrument) and under a constant flow of extracellular solution (140 mM NaCl, 4 M KCl, 1 mM MgCl2, 1 mM CaCl2, 10 mM HEPES, 10 mM D-glucose, pH 7.35, osmolarity 290). Whole cell patch clamping was performed with a glass micropipette filled with intracellular solution (120 mM KCl, 1.75 mM MgCl2, 10 mM HEPES, 10 mM EGTA, and 4 mM ATP-K2, PH 7.2, osmolarity 300). Giga-seal was maintained during the test. The voltage control and current measurement were carried out using Axon amplifier 700B, Digidata 1440A and CLAMPEX10 software (Molecular Devices). Whole-cell hERG currents were recorded following the Petroski protocol: the cell was held at −80 mV, and the voltage step jumped from −80 to 30 mV and stay for 2 sec with a 20 ms prepulse at −40 mV. After depolarization, the voltage was decreased to −40 mV and stay for 2 sec, and returned back to −80 mV. Test compound was applied by quartz capillary tubes tip (200 μm inner diameter), and the flow rate was controlled at 2-3 ml/min with OctaFlow perfusion system. Different concentrations of the compound were applied to the cells for 5 min and the hERG current was measured three times before, during and after compound treatment. The data were analyzed using Clampfit 10 software (Molecular Devices).

human NR1/NR2B = human NR1/NR2B (Homo sapiens (Human), UniProt Q13224); assay: NR2B antagonist activity, Fluo-4 calcium influx assay in HEK293 cells; assay type: cell-based; settings: HEK293 cells stably expressing NR2B; glutamate 100 μM, glycine 50 μM
Method: (§1) Activation of the NR2A or NR2B subtype of NMDA receptor with glutamate as an agonist and glycine co-agonist on these cells results in calcium influx, which can be monitored with fluorescent indicator Fluo-4.
(§2) For experiments, the cells were seeded onto poly-D-lysine-coated 96-well black plates with clear bottom (Corning) at a density of ˜50,000 cells/well. After overnight culture, the growth medium was removed from the wells and the cells were incubated at 37° C. for 60 min in Hanks buffer containing 4 μM fluo-4-AM (Invitrogen) and 0.1% bovine serum albumin (BSA). After dye-loading, the cells were washed three times with Hanks buffer and incubated for 10 min at room temperature with various concentrations of test compounds prepared in Hanks buffer with 0.1% BSA. The cell plates were placed onto FDSS μCell fluorescence reader (Hamamatsu). After 20 sec reading of background fluorescence, agonist glutamate at final 100 μM and co-agonist glycine at final 50 μM were added to the cells to activate the receptor, and the resulting fluorescence changes were recorded and quantified.

human NR1/NR2A = human NR1/NR2A (Homo sapiens (Human), UniProt Q05586+Q12879); assay: NR2A antagonist activity, Fluo-4 calcium influx assay in HEK293 cells; assay type: cell-based
Method: as §1, §2

Male mice (strain NLMN) = assay: Forced swim test; assay type: in vivo
Method: Mice that are forced to swim in a situation from which they cannot escape, rapidly become immobile. Drugs with antidepressant activity, such as imipramine, reduce the amount of time spent in the immobile state. […] All animals were housed in a temperature (22-24° C.) and humidity (50-60%) controlled environment with free access to food and water on a 12-hour light-dark cycle. Test compounds were dissolved in 0.5% dimethylsulfoxide, 4% hydroxypropyl-b-cyclodextrin water to generate the appropriate dosing solution. Drugs were administered by intraperitoneal injection at a dose volume of 10 mL/kg. Testing was initiated 20-60 minutes after dosing. […] Mice were placed in a white plastic cylinder 20 cm high with a diameter of 21 cm containing 10 cm of water at 25±2° C. The mice were videotaped for 6 minutes, and the last 4 minutes of video were analyzed by a blinded observer off-line. The observer judged the animal to be immobile when it ceased all activity (struggling, swimming, jumping etc.) and floated passively atop the water. The amount of time each animal spent in the immobile state was recorded and used for statistical analysis of compound effect. Group differences were evaluated by student's t-test or one-way ANOVA followed by post-hoc Dunnett's test.

CYP2D6 = CYP2D6 (Homo sapiens (Human), UniProt P10635); assay: CYP P450 enzyme inhibition in pooled human liver microsome
CYP2D6, sequence (P10635 whole entry): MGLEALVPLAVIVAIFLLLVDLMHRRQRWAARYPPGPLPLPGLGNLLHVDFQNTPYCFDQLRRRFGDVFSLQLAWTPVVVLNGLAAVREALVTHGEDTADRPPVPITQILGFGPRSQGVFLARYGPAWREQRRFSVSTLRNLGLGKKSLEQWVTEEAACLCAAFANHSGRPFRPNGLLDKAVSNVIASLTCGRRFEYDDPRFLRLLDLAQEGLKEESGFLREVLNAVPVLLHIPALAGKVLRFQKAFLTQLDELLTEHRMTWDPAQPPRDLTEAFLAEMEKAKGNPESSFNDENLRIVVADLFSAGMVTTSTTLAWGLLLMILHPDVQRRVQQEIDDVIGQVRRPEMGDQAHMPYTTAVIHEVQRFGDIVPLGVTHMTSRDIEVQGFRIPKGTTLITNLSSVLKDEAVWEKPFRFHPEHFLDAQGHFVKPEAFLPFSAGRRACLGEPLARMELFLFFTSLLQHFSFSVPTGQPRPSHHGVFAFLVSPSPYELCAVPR
Method: Those CYP isoforms and their corresponding probe substrates are as follows: CYP1A2 (phenacetin, 30 μM), CYP2C9 (tolutamide, 100 μM), CYP2C19 (S-mephenytoin, 40 μM), CYP2D6 (dextromethorphan, 5 μM) and CYP3A4 (midazolam, 1 μM). All probe substrates were used at concentrations near or below their Kms. For experiment, a reaction mixture of test compound at 10 uM or in serial dilution, CYP probe substrate described above and 0.2 mg/mL pooled HLM in phosphate buffer, pH 7.4 in a final volume of 200 μL was pre-incubated at 37° C. for 10 minutes in triplicate. The reaction was initiated by addition of NADPH at final concentration of 1 mM. […] The samples were then centrifuged at 13,000 rpm and the supernatants were injected to LC-MS/MS (Agilent Technologies) to quantify the concentration of the specific metabolites of the probe substrates formed by individual CYP450 isoforms. The inhibition ratio is calculated as: (Mt−M0)/Mwater×100% • in which Mt and M0 represent the concentrations of the specific probe substrate metabolite, which was formed by individual CYP450 isoform, at the beginning and end of the reaction in the presence of test compound; while Mwater represents the concentration of the specific metabolite at the end of the reaction in the absence of test compound. […]

human NR1/NR2B, sequence (Q13224 27-1484, other chains not shown): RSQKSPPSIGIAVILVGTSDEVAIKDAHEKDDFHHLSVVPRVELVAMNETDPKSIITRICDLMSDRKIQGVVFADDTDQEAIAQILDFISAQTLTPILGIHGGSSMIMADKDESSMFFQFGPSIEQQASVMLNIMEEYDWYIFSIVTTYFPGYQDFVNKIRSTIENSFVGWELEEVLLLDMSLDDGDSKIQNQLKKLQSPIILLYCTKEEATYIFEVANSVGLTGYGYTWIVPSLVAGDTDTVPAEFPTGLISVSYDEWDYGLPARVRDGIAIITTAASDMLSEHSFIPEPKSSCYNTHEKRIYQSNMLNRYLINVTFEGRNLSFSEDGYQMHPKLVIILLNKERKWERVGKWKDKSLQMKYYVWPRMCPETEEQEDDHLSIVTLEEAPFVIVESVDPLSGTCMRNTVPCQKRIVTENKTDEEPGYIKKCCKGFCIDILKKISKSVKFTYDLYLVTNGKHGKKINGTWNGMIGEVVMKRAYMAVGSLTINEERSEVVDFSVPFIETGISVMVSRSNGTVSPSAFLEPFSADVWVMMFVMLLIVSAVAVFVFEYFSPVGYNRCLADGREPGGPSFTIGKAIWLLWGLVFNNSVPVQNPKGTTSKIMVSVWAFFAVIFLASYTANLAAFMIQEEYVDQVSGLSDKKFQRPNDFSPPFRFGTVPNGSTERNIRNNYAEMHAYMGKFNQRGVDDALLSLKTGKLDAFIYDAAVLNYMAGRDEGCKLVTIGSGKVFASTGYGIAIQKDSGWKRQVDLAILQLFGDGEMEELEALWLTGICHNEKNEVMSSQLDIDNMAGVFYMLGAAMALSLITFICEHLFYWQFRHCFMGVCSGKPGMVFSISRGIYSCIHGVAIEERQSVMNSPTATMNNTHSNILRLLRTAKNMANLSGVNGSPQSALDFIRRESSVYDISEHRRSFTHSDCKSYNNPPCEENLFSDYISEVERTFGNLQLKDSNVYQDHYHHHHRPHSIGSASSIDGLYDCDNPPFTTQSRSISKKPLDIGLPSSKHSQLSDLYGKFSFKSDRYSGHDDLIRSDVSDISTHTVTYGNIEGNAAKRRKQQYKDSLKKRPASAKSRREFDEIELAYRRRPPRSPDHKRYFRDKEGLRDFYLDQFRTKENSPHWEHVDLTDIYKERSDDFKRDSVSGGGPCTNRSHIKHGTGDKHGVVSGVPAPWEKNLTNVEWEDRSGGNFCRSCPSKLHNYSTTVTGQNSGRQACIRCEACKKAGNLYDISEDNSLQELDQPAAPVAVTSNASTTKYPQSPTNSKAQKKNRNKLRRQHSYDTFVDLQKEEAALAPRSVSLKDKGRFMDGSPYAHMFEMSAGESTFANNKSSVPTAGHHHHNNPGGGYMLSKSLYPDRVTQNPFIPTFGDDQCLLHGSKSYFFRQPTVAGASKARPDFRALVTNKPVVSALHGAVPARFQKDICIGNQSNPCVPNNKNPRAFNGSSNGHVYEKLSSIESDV
human NR1/NR2A, sequence (Q12879 23-1464, other chains not shown): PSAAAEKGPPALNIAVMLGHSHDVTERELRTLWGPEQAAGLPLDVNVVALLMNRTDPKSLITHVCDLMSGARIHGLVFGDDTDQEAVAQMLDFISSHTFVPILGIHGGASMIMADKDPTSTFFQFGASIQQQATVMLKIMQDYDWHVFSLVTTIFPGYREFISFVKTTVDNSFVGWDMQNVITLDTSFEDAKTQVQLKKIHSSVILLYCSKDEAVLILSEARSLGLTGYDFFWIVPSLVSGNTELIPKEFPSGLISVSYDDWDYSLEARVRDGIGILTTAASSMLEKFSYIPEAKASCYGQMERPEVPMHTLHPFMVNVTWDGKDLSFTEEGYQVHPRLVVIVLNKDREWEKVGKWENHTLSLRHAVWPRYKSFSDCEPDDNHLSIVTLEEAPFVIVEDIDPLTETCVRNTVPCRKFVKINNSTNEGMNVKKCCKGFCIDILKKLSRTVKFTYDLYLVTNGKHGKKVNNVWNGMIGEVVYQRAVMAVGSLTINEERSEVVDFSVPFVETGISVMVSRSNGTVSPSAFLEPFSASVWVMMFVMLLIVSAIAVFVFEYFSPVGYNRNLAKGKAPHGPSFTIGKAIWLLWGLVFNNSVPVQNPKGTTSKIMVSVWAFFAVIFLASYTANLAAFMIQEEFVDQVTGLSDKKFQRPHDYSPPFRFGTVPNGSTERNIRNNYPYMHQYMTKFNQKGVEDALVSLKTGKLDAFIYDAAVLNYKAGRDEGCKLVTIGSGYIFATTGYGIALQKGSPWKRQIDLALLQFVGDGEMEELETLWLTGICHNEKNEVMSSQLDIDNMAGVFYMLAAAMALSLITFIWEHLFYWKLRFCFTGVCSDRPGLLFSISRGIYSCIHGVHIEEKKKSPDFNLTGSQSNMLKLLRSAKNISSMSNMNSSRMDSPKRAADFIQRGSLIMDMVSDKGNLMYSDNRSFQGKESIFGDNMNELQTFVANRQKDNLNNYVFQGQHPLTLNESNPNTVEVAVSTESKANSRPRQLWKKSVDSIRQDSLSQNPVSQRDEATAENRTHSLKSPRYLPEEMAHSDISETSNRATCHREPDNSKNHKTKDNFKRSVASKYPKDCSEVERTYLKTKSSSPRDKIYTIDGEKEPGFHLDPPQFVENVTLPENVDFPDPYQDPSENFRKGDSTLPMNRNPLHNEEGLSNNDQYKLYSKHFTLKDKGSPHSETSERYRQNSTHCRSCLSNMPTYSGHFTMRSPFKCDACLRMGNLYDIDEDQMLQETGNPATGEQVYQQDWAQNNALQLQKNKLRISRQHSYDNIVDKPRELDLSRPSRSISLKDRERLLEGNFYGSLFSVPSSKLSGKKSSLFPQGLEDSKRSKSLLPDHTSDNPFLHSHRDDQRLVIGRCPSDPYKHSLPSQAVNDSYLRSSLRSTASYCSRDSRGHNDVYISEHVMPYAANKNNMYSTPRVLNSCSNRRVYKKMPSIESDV
hERG channel, sequence (Q12809 whole entry): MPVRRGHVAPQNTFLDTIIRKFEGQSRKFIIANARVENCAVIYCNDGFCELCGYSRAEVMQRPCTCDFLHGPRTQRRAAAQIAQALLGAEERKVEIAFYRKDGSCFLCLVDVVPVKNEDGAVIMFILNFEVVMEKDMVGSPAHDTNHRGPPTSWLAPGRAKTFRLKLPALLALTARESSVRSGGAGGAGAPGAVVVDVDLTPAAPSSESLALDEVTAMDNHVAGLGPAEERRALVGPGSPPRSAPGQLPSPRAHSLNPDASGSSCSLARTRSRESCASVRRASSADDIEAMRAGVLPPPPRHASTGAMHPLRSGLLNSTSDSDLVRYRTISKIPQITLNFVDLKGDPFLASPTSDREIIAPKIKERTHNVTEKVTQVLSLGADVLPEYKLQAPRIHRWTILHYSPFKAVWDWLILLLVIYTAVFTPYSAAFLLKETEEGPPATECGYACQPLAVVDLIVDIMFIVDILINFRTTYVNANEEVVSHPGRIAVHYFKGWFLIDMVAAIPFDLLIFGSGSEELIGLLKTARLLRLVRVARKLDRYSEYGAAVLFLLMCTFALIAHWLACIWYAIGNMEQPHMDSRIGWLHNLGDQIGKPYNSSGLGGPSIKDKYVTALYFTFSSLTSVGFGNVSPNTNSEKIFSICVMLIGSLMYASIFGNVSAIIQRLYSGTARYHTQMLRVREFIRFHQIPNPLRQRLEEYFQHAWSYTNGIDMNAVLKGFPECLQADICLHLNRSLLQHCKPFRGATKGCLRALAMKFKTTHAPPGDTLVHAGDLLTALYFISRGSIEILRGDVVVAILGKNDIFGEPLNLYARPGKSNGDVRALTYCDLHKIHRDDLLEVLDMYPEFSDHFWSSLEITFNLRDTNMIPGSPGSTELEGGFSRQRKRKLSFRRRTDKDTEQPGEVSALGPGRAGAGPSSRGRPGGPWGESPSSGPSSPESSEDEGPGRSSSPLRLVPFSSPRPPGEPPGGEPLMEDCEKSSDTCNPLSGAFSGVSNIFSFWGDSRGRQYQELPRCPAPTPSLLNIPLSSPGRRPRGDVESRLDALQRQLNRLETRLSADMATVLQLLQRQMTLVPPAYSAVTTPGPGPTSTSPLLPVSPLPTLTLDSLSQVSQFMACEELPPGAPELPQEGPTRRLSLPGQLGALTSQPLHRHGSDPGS

| SMILES | IC50 (human NR1/NR2B) | IC50 (human NR1/NR2A) [nM] | further results |
| --- | --- | --- | --- |
| FC(F)(F)c1ccc(C(F)(F)CN2CCC(Nc3ncnc4[nH]ncc34)CC2)cn1 [C-127, N-(1-(2,2-difluoro-2-(6-(trifluoromethyl)pyridin-3-yl)ethyl)piperidin-4-yl)-1H-pyrazolo[3,4-d]pyrimidin-4-amine] | 38 nM |  | IC50 (hERG channel): 23000 nM |
| Fc1cc(C(F)(F)F)cnc1C(F)(F)CN1CCC(Nc2ncnc3[nH]ncc23)CC1 [C-18, N-(1-(2,2-difluoro-2-(3-fluoro-5-(trifluoromethyl)pyridin-2-yl)-ethyl)piperidin-4-yl)-1H-pyrazolo[3,4-d]pyrimidin-4-amine] | 59 nM | > 10000 | immobility time (Male mice (strain NLMN); 10 mg/kg, 20 minutes after IP dosing, vehicle group 175±14, p<0.01): 97 ± 16 s |
| CN(C)CCCN1c2ccccc2CCc2ccccc21 [imipramine, reference compound] |  |  | antidepressant activity (Male mice (strain NLMN); positive control, 32 mg/kg, IP): showed the expected antidepressant activity |
| FC(F)Oc1ccc(C(F)(F)CN2CCC(Nc3ncnc4[nH]ncc34)CC2)nc1 [C-12] | 23 nM | > 10000 |  |
| Fc1cnc(C(F)(F)CN2CCC(Nc3ncnc4[nH]ncc34)CC2)c(F)c1 [C-15, N-(1-(2-(3,5-difluoropyridin-2-yl)-2,2-difluoroethyl)piperidin-4-yl)-1H-pyrazolo[3,4-d]-pyrimidin-4-amine] | 93 nM | > 10000 |  |
| FC(F)(F)c1ccc(C(F)(F)CN2CCC(Nc3ncnc4[nH]ncc34)CC2)nc1 [C-5, N-(1-(2,2-difluoro-2-(5-(trifluoromethyl)pyridin-2-yl)ethyl)piperidin-4-yl)-1H-pyrazolo[3,4-d]pyrimidin-4-amine] |  | > 10000 | IC50 (hERG channel): 31000 nM; immobility time (Male mice (strain NLMN); 3 mg/kg IP, vehicle group 188±6.6, p<0.05): 111 ± 18.3 s; immobility time (Male mice (strain NLMN); 10 mg/kg IP, vehicle group 188±6.6, p<0.01): 89 ± 14.4 s |
| Fc1cc(Cl)cnc1C(F)(F)CN1CCC(Nc2ncnc3[nH]ncc23)CC1 [C-16, N-(1-(2-(5-chloro-3-fluoropyridin-2-yl)-2,2-difluoroethyl)piperidin-4-yl)-1H-pyrazolo[3,4-d]pyrimidin-4-amine] | 30 nM | > 10000 | IC50 (CYP2D6): 10000 nM; IC50 (hERG channel): 13000 nM |
| Cc1n[nH]c2ncnc(NC3CCN(CC(F)(F)c4ccc(C(F)(F)F)cn4)CC3)c12 [C-33, N-(1-(2,2-difluoro-2-(5-(trifluoromethyl)pyridin-2-yl)ethyl)piperidin-4-yl)-3-methyl-1H-pyrazolo[3,4-d]pyrimidin-4-amine] | 110 nM and 89 nM | > 10000 | IC50 (hERG channel): > 30000 nM |
| FCc1ccc(C(F)(F)CN2CCC(Nc3ncnc4[nH]ncc34)CC2)nc1 [C-7] | 43 nM | > 10000 |  |
| FC(F)(CN1CCC(Nc2ncnc3[nH]ncc23)CC1)c1ccccn1 [C-1, N-(1-(2,2-difluoro-2-(pyridin-2-yl)ethyl)piperidin-4-yl)-1H-pyrazolo[3,4-d]pyrimidin-4-amine] | 178 nM | > 10000 |  |
| FC(F)(CN1CCC(Nc2ncnc3[nH]ncc23)CC1)c1ccc(Cl)cn1 [C-3] | 26 nM | > 10000 |  |
| FC(F)(CN1CCC(Nc2ncnc3[nH]ncc23)CC1)c1ncc(Cl)cc1Cl [C-24, N-(1-(2-(3,5-dichloropyridin-2-yl)-2,2-difluoroethyl)piperidin-4-yl)-1H-pyrazolo[3,4-d]pyrimidin-4-amine] | 52 nM | > 10000 |  |
| FC(F)c1ccc(C(F)(F)CN2CCC(Nc3ncnc4[nH]ncc34)CC2)nc1 [C-6] | 34 nM | > 10000 |  |
| Cc1cnc(C(F)(F)CN2CCC(Nc3ncnc4[nH]ncc34)CC2)c(F)c1 [C-17, N-(1-(2,2-difluoro-2-(3-fluoro-5-methylpyridin-2-yl)ethyl)piperidin-4-yl)-1H-pyrazolo[3,4-d]pyrimidin-4-amine] | 48 nM | > 10000 |  |
| Cc1ccc(C(F)(F)CN2CCC(Nc3ncnc4[nH]ncc34)CC2)nc1 [C-4, N-(1-(2,2-difluoro-2-(5-methylpyridin-2-yl)ethyl)piperidin-4-yl)-1H-pyrazolo[3,4-d]pyrimidin-4-amine] | 52 nM | > 10000 |  |
